Here are results for two compounds from article PMC12775434, “Ultra-large virtual screening unveils potent agonists of the neuromodulatory orphan receptor GPR139” (Nature Communications, 2025).

In one assay the target is T1, GPR139 (Gi2 activation) (Homo sapiens, UniProt Q6DWJ6).
T1 construct: expressed in transfected cells; host or cells: HEK293A (transient, Lipofectamine 2000)
T1 sequence (Q6DWJ6 1-353): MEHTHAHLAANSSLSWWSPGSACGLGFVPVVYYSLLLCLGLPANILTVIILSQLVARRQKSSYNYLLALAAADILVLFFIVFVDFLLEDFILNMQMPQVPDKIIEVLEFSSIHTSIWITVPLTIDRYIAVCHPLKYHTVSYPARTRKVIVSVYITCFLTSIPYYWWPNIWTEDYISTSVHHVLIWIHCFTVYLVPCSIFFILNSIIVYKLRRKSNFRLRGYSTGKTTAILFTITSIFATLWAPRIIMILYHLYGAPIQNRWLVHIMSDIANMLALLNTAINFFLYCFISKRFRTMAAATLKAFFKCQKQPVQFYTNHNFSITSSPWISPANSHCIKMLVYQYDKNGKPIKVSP
Briefly: BRET G protein activation (dissociation) assay, Gi2, HEK293A. It counts as cell-based. Particulars: for Emax: HEK293-A, normalized to JNJ-63533054 (JNJ(S)); for EC50: Supplementary Table 6, read-out: pEC50 Gi2 (converted); for G protein activation, Gi2: individual replicates. The protocol:
(§1) Primary screening and pharmacological characterization of compounds were performed using a CHO-K1 cell line that stably expresses human GPR139 (GPR139-CHOk1). The GPR139-CHOk1 cell line was kindly provided by H. Lundbeck A/S, Denmark[24]. GPR139-CHOk1 cells were grown in Ham’s F-12 Kaighn’s Modification Medium (ThermoFisher #21127030) supplemented with 10% dialyzed fetal bovine serum (US origin, ThermoFisher #26400044), 100 units/mL Penicillin-Streptomycin (ThermoFisher #15140122), and 1 mg/mL Geneticin (ThermoFisher #11811031). […] M1R-CHOk1 cells were purchased from The Missouri S&T cDNA Resource Center (#CEM100TN00). M1R-CHOk1 cells were grown in Ham’s F12 Medium (ThermoFisher #21765029) supplemented with 10% fetal bovine serum (Brazilian origin, ThermoFisher #10270106), 100 units/mL Penicillin-Streptomycin, and 0.25 mg/mL Geneticin. HEK293A cells transiently transfected with GPR139 were used for additional pharmacological assessment of signaling pathways activated by GPR139. HEK239A cells were generously provided by Dr. Asuka Inoue, Tohoku University, Japan. HEK293A cells were grown in Dulbecco’s Modified Eagle Medium (ThermoFisher #31966047) supplemented with 10% dialyzed fetal bovine serum and 100 units/mL Penicillin-Streptomycin. Cell lines were maintained at 37 °C in humidified incubator equilibrated with 5% CO2.
(§2) The G protein dissociation assay developed by the lab of Kirill A. Martemyanov was used to measure the coupling of multiple G proteins by GPR139[57]. The assay was performed as described previously with minor modifications. HEK293A cells were reverse transfected 20–24 h prior to assay. 50,000 cells were plated in each well of white opaque tissue culture treated 96-well plates (PerkinElmer #6005680) previously coated with poly-D-lysine. Transfection solutions were prepared as described, and 10 µL transfection solution was mixed with 100 µL cells in each well. The cells in each well were transfected with 18.9 ng GPR139, 6.3 ng Venus 1-155 Gγ2, 6.3 ng Venus 159-239 Gβ1, 6.3 ng masGRK3ct-NanoLuc and 12.6 ng Gαi2, 12.6 ng Gαi3, 12.6 ng GαoA, 12.6 ng Gαq or 25.2 ng Gα12 using 375 nL Lipofectamine 2000 Transfection Reagent. Transfections with Gαq and Gα12 contained 6.3 ng DNA of the active subunit S1 of pertussis toxin (PTX-S1). Each transfection was normalized to 150 ng total DNA with pcDNA3.1. The BRET biosensors were a kind gift from the Martemyanov lab. On the day of the experiment the cells were washed with HEPES buffer. Test compounds were diluted in HEPES buffer from DMSO stocks (final DMSO concentration of maximally 0.3%). NanoLuc Luciferase substrate NanoGlo—furimazine (Promega #N1120) was diluted 1000-fold (final) in HEPES buffer. NanoGlo and test compounds were added, and measurements were performed after 10 s for Gi3, 15 s for Gi2 and GoA, 20 s for Gq, and 90 s for G12—the timepoint where maximal signal occurred with each G protein, ensuring proper determination of the potency for the G protein coupling. Simultaneous dual emission was measured at 535 nm and 475 nm on LUMIstar Omega Microplate Reader (BMG Labtech) at room temperature. The BRET ratio of 535 nm/475 nm (Venus/NanoLuc), reflecting the dissociation of the G protein heterotrimer, was used to determine the G protein activation. The basal BRET ratio obtained with buffer condition was subtracted from the absolute BRET ratio at a given test compound concentration, and the responses were normalized to the one obtained with 10 µM JNJ-63533054 for the activation of Gi2.
(§3) Pharmacological data and statistical analyses were performed in GraphPad Prism v9–10 (Graphpad Software Inc., San Diego, CA), which are also specifically described in the figure and table legends. […]

Another assay has as its target T2, GPR139 (Gq activation) (Homo sapiens, UniProt Q6DWJ6).
T2 construct: expressed in transfected cells; host or cells: HEK293A (transient, Lipofectamine 2000)
T2 sequence (Q6DWJ6 1-353): T1 sequence (Q6DWJ6 1-353)
Nature of the assay: BRET G protein activation (dissociation) assay, Gq, HEK293A. Format: cell-based. Particulars: for Emax: HEK293-A, normalized to JNJ-63533054 (JNJ(S)); for EC50: Supplementary Table 6; for G protein activation, Gq: individual replicates. As for the experimental part: as §1, §2, §3

The mark [1] stands for this setting: log [compound] M -4.5, listed as JNJ (S).
Where [2] appears, read: log [compound] M -5.0, listed as JNJ (S).
The mark [3] stands for this setting: log [compound] M -5.5, listed as JNJ (S).
The mark [4] stands for this setting: log [compound] M -6.0, listed as JNJ (S).
Where [5] appears, read: log [compound] M -6.5, listed as JNJ (S).
Where [6] appears, read: log [compound] M -7.0, listed as JNJ (S).
[7] abbreviates: log [compound] M -7.5, listed as JNJ (S).
The mark [8] stands for this setting: log [compound] M -8.0, listed as JNJ (S).

Several values for one entry are separate records, joined by “and”; a condition that tells them apart may be missing. Identical values can stand only once.

Take `CC(NC(=O)CNC(=O)c1cccc(Cl)c1)c1ccccc1` (stereo not shown) [JNJ-63533054, reference compound]: the Emax on GPR139 (Gi2 activation) is 109 ± 1%; at GPR139 (Gq activation) it was 42 ± 3%. Besides, the EC50 is 50.1 nM at GPR139 (Gi2 activation) and 158 nM at GPR139 (Gq activation). Besides, the “G protein activation, Gi2” value was 109 % of JNJ-63533054 at Gi2 and 111 % of JNJ-63533054 at Gi2 and 108 % of JNJ-63533054 at Gi2 at GPR139 (Gi2 activation) (setting [1]); 106 % of JNJ-63533054 at Gi2 and 107 % of JNJ-63533054 at Gi2 and 108 % of JNJ-63533054 at Gi2 at GPR139 (Gi2 activation) (setting [2]); 107 % of JNJ-63533054 at Gi2 and 103 % of JNJ-63533054 at Gi2 and 104 % of JNJ-63533054 at Gi2 at GPR139 (Gi2 activation) (setting [3]); 102 % of JNJ-63533054 at Gi2 and 99 % of JNJ-63533054 at Gi2 and 98 % of JNJ-63533054 at Gi2 at GPR139 (Gi2 activation) (setting [4]); 92 % of JNJ-63533054 at Gi2 and 85 % of JNJ-63533054 at Gi2 (2×) on GPR139 (Gi2 activation) (setting [5]); 75 % of JNJ-63533054 at Gi2 and 67 % of JNJ-63533054 at Gi2 and 70 % of JNJ-63533054 at Gi2 at GPR139 (Gi2 activation) (setting [6]). In addition, the “G protein activation, Gi2” value at GPR139 (Gi2 activation) (setting [7]) is 49 % of JNJ-63533054 at Gi2 and 44 % of JNJ-63533054 at Gi2 (2×); at GPR139 (Gi2 activation) (setting [8]), 21 % of JNJ-63533054 at Gi2 (2×) and 20 % of JNJ-63533054 at Gi2. Moreover, the “G protein activation, Gq” value on GPR139 (Gq activation) (setting [1]) is 40 % of JNJ-63533054 at Gi2 and 47 % of JNJ-63533054 at Gi2 and 36 % of JNJ-63533054 at Gi2; at GPR139 (Gq activation) (setting [2]) it was 40 % of JNJ-63533054 at Gi2 and 47 % of JNJ-63533054 at Gi2 and 39 % of JNJ-63533054 at Gi2; at GPR139 (Gq activation) (setting [3]), 42 % of JNJ-63533054 at Gi2 and 44 % of JNJ-63533054 at Gi2 and 32 % of JNJ-63533054 at Gi2; on GPR139 (Gq activation) (setting [4]), 39 % of JNJ-63533054 at Gi2 and 42 % of JNJ-63533054 at Gi2 and 31 % of JNJ-63533054 at Gi2; at GPR139 (Gq activation) (setting [5]), 29 % of JNJ-63533054 at Gi2 and 32 % of JNJ-63533054 at Gi2 and 23 % of JNJ-63533054 at Gi2; on GPR139 (Gq activation) (setting [6]) it was 17 % of JNJ-63533054 at Gi2 (2×) and 9 % of JNJ-63533054 at Gi2. Also, the “G protein activation, Gq” value on GPR139 (Gq activation) (setting [7]) is 5.47 % of JNJ-63533054 at Gi2 and 7 % of JNJ-63533054 at Gi2 and 1.27 % of JNJ-63533054 at Gi2; on GPR139 (Gq activation) (setting [8]), 1.82 % of JNJ-63533054 at Gi2 and 0.745 % of JNJ-63533054 at Gi2 and -0.2 % of JNJ-63533054 at Gi2.

For the compound `Cc1cscc1-c1nc(CC(=O)N[C@H](C)c2ccccc2)no1` [1.1(R)], the Emax on GPR139 (Gi2 activation) was determined as 88 ± 11%; on GPR139 (Gq activation), 21 ± 3%. The EC50 at GPR139 (Gi2 activation) was 794 nM; on GPR139 (Gq activation), 2510 nM. Moreover, the “G protein activation, Gi2” value at GPR139 (Gi2 activation) (log [compound] M -4.5) is 74 % of JNJ-63533054 at Gi2 and 72 % of JNJ-63533054 at Gi2 and 95 % of JNJ-63533054 at Gi2; at GPR139 (Gi2 activation) (log [compound] M -5.0), 74 % of JNJ-63533054 at Gi2 and 67 % of JNJ-63533054 at Gi2 and 91 % of JNJ-63533054 at Gi2; at GPR139 (Gi2 activation) (log [compound] M -5.5) it was 63 % of JNJ-63533054 at Gi2 and 47 % of JNJ-63533054 at Gi2 and 77 % of JNJ-63533054 at Gi2; on GPR139 (Gi2 activation) (log [compound] M -6.0), 51 % of JNJ-63533054 at Gi2 and 35 % of JNJ-63533054 at Gi2 and 64 % of JNJ-63533054 at Gi2; on GPR139 (Gi2 activation) (log [compound] M -6.5), 30 % of JNJ-63533054 at Gi2 and 18 % of JNJ-63533054 at Gi2 and 40 % of JNJ-63533054 at Gi2; at GPR139 (Gi2 activation) (log [compound] M -7.0), 9 % of JNJ-63533054 at Gi2 and 1.06 % of JNJ-63533054 at Gi2 and 24 % of JNJ-63533054 at Gi2. For the same compound, the “G protein activation, Gi2” value on GPR139 (Gi2 activation) (log [compound] M -7.5) was 6 % of JNJ-63533054 at Gi2 and -1.09 % of JNJ-63533054 at Gi2 and 22 % of JNJ-63533054 at Gi2; on GPR139 (Gi2 activation) (log [compound] M -8.0), -2.65 % of JNJ-63533054 at Gi2 and -5 % of JNJ-63533054 at Gi2 and 18 % of JNJ-63533054 at Gi2. Besides, the “G protein activation, Gq” value at GPR139 (Gq activation) (log [compound] M -4.5) was 17 % of JNJ-63533054 at Gi2 (2×) and 25 % of JNJ-63533054 at Gi2; at GPR139 (Gq activation) (log [compound] M -5.0), 16 % of JNJ-63533054 at Gi2 and 21 % of JNJ-63533054 at Gi2 and 15 % of JNJ-63533054 at Gi2; at GPR139 (Gq activation) (log [compound] M -5.5), 10 % of JNJ-63533054 at Gi2 and 12 % of JNJ-63533054 at Gi2 (2×); at GPR139 (Gq activation) (log [compound] M -6.0) it was 4.28 % of JNJ-63533054 at Gi2 and 5.63 % of JNJ-63533054 at Gi2 and 5 % of JNJ-63533054 at Gi2; at GPR139 (Gq activation) (log [compound] M -6.5), 0.0563 % of JNJ-63533054 at Gi2 and -0.806 % of JNJ-63533054 at Gi2 and 0.934 % of JNJ-63533054 at Gi2; on GPR139 (Gq activation) (log [compound] M -7.0) it was -1.52 % of JNJ-63533054 at Gi2 and -1.69 % of JNJ-63533054 at Gi2 and -0.279 % of JNJ-63533054 at Gi2. The “G protein activation, Gq” value on GPR139 (Gq activation) (log [compound] M -7.5) was -0.908 % of JNJ-63533054 at Gi2 and -3 % of JNJ-63533054 at Gi2 and -0.0719 % of JNJ-63533054 at Gi2; on GPR139 (Gq activation) (log [compound] M -8.0) it was -5.54 % of JNJ-63533054 at Gi2 and -3 % of JNJ-63533054 at Gi2 and 1.13 % of JNJ-63533054 at Gi2.
